The source of these data is ChEMBL document CHEMBL1130651, “Synthesis of novel C7-aryl substituted pyrrolo[2,1-c][1,4]benzodiazepines (PBDs) via pro-N10-Troc protection and Suzuki coupling” (Bioorg Med Chem Lett, 1998).

Molecules are shown by their SMILES.

For one assay, the system named is CH1. As to the kind of experiment: Compound was evaluated for cytotoxicity against CH1 cell line. It counts as functional, cell-based. Conditions: Homo sapiens.
The test system of the next assay is A2780. Put plainly: Compound was evaluated for cytotoxicity against A2780 cell line. Conditions: Homo sapiens. The format is functional, cell-based.

For `COc1ccc(-c2ccc3c(c2)C(=O)N2CCC[C@H]2C=N3)cc1`, the half-inhibitory concentration (IC50) with CH1 is 1.35 µM; with A2780 it was 0.56 µM.
Turning to `O=C1c2cc(-c3ccccc3)ccc2N=C[C@@H]2CCCN12`, the IC50 is 1.5 µM in the assay on CH1 and 1.15 µM in the assay with A2780.
As to `O=C1c2cc(-c3cccc([N+](=O)[O-])c3)ccc2N=C[C@@H]2CCCN12`, the figures for the IC50 in the assay on CH1 and in the assay on A2780 were 22.5 µM and 34.5 µM, respectively.
Turning to `COc1ccccc1-c1ccc2c(c1)C(=O)N1CCC[C@H]1C=N2`, the IC50 was 4.8 µM in the assay with CH1 and 1.18 µM in the assay on A2780.
Regarding `Cc1ccc(-c2ccc3c(c2)C(=O)N2CCC[C@H]2C=N3)cc1`, the IC50 in the assay on CH1 was found to be 1.5 µM; in the assay on A2780, 0.58 µM.
`O=C1c2cc(-c3ccc(F)cc3)ccc2N=C[C@@H]2CCCN12`: the results for the IC50 in the assay with CH1 and with A2780 were 4.7 µM and 0.66 µM, respectively.

A word on the IC50: it is the concentration needed to halve the response being measured. The low end stands for inhibition by little substance, the high end for a need for much substance.
